Experimental data taken from ChEMBL document CHEMBL1201862, “PubChem BioAssay data set” (2004).
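Where inhibition never reached the appropriate level, the endpoint shown equals the highest concentration tested. Otherwise, values were interpolated linearly from a five-concentration, 48-hour dose response in 96-well plates. GI50 marks 50% less growth.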 The source made the active and inactive calls. No stated cut-off is given here; in the data, active = GI50 up to about 1.1 µM and inactive = higher.

Experiments:
Test in all cases: inhibition of tumour cell growth, NCI panel, 48 h
LXFL 529 = system: LXFL 529
U-251 = system: U-251
SK-OV-3 = system: SK-OV-3
Malme-3M = system: Malme-3M
TK-10 = system: TK-10
SK-MEL-28 = system: SK-MEL-28
HCT-116 = system: HCT-116
SK-MEL-5 = system: SK-MEL-5
LOX IMVI = system: LOX IMVI
KM12 = system: KM12
SW-620 = system: SW-620
NCI-H460 = system: NCI-H460
SF-295 = system: SF-295
IGROV-1 = system: IGROV-1
UO-31 = system: UO-31
OVCAR-4 = system: OVCAR-4
OVCAR-5 = system: OVCAR-5
A498 = system: A498
SF-539 = system: SF-539
MOLT-4 = system: MOLT-4
CAKI-1 = system: CAKI-1
NCI/ADR-RES = system: NCI/ADR-RES
ACHN = system: ACHN
PC-3 = system: PC-3
NCI-H522 = system: NCI-H522
M19-MEL = system: M19-MEL
UACC-257 = system: UACC-257
Hs-578T = system: Hs-578T
NCI-H226 = system: NCI-H226
MCF7 = system: MCF7
COLO 205 = system: COLO 205
BT-549 = system: BT-549
SR = system: SR
K562 = system: K562
DLD-1 = system: DLD-1
DU-145 = system: DU-145
MDA-N = system: MDA-N
SNB-19 = system: SNB-19
OVCAR-8 = system: OVCAR-8
HOP-62 = system: HOP-62
T47D = system: T47D
NCI-H23 = system: NCI-H23
DMS-273 = system: DMS-273
OVCAR-3 = system: OVCAR-3
SN12C = system: SN12C
MDA-MB-231 = system: MDA-MB-231
HCT-15 = system: HCT-15
SNB-78 = system: SNB-78
CCRF-CEM = system: CCRF-CEM
EKVX = system: EKVX
UACC-62 = system: UACC-62
DMS-114 = system: DMS-114
HL-60 = system: HL-60
SNB-75 = system: SNB-75
SK-MEL-2 = system: SK-MEL-2
RPMI-8226 = system: RPMI-8226
MDA-MB-435 = system: MDA-MB-435
HT-29 = system: HT-29
786-0 = system: 786-0
HCC 2998 = system: HCC 2998
KM-20L2 = system: KM-20L2
RXF 393 = system: RXF 393
A549 = system: A549
SF-268 = system: SF-268
HOP-92 = system: HOP-92
M14 = system: M14

`CC(C)n1c2c([n+](C)c1/C=C/c1ccccc1)C(=O)c1ccccc1C2=O` was tested, and the GI50 (LXFL 529) was 0.0861 µM (active), the GI50 (U-251) was 0.147 µM (active) and the GI50 (SK-OV-3) was 0.299 µM (active). The GI50 (Malme-3M) was 0.107 µM (active), the GI50 (TK-10) was 0.538 µM (active) and the GI50 (SK-MEL-28) was 0.312 µM (active). For the same molecule, the GI50 (HCT-116) was 0.0748 µM (active), the GI50 (SK-MEL-5) was 0.07 µM (active) and the GI50 (LOX IMVI) was 0.0721 µM (active). For the same molecule, the GI50 (KM12) was 0.132 µM (active), the GI50 (SW-620) was 0.0501 µM (active) and the GI50 (NCI-H460) was 0.36 µM (active). The GI50 (SF-295) was 0.916 µM (active), the GI50 (IGROV-1) was 0.0157 µM (active) and the GI50 (UO-31) was 3.55 µM (inactive). For the same molecule, the GI50 (OVCAR-4) was 0.0278 µM (active), the GI50 (OVCAR-5) was 0.501 µM (active) and the GI50 (A498) was 0.611 µM (active). For the same molecule, the GI50 (SF-539) was 0.0334 µM (active), the GI50 (MOLT-4) was 0.0504 µM (active) and the GI50 (CAKI-1) was 2.79 µM (inactive). For the same molecule, the GI50 (NCI/ADR-RES) was 48.6 µM (inactive), the GI50 (ACHN) was 2 µM (inactive) and the GI50 (PC-3) was 0.149 µM (active). The GI50 (NCI-H522) was 0.0201 µM (active), the GI50 (M19-MEL) was 0.125 µM (active) and the GI50 (UACC-257) was 0.0398 µM (active). For the same molecule, the GI50 (Hs-578T) was 1.91 µM (inactive), the GI50 (NCI-H226) was 0.791 µM (active) and the GI50 (MCF7) was 0.0516 µM (active). For the same molecule, the GI50 (COLO 205) was < 0.01 µM (active), the GI50 (BT-549) was 0.241 µM (active) and the GI50 (SR) was 0.257 µM (active). For the same molecule, the GI50 (K562) was 0.0592 µM (active), the GI50 (DLD-1) was 0.426 µM (active) and the GI50 (DU-145) was 0.34 µM (active). For the same molecule, the GI50 (MDA-N) was 0.299 µM (active), the GI50 (SNB-19) was 0.223 µM (active) and the GI50 (OVCAR-8) was 0.07 µM (active). For the same molecule, the GI50 (HOP-62) was 0.398 µM (active), the GI50 (T47D) was 0.0397 µM (active) and the GI50 (NCI-H23) was 0.0908 µM (active). For the same molecule, the GI50 (DMS-273) was 0.0348 µM (active), the GI50 (OVCAR-3) was < 0.01 µM (active) and the GI50 (SN12C) was 0.0495 µM (active). For the same molecule, the GI50 (MDA-MB-231) was 0.166 µM (active), the GI50 (HCT-15) was 3.67 µM and the GI50 (SNB-78) was 0.0389 µM (active). For the same molecule, the GI50 (CCRF-CEM) was 0.0743 µM (active), the GI50 (EKVX) was 0.206 µM (active) and the GI50 (UACC-62) was 0.198 µM (active). For the same molecule, the GI50 (DMS-114) was < 0.0148 µM (active), the GI50 (HL-60) was 0.02 µM (active) and the GI50 (SNB-75) was 0.419 µM (active). For the same molecule, the GI50 (SK-MEL-2) was 0.116 µM (active), the GI50 (RPMI-8226) was 0.0575 µM (active) and the GI50 (MDA-MB-435) was 0.237 µM (active). For the same molecule, the GI50 (HT-29) was 0.0875 µM (active), the GI50 (786-0) was 0.259 µM (active) and the GI50 (HCC 2998) was 0.272 µM (active). For the same molecule, the GI50 (KM-20L2) was 0.0955 µM (active), the GI50 (RXF 393) was 0.322 µM (active) and the GI50 (A549) was 0.587 µM (active). For the same molecule, the GI50 (SF-268) was 0.0703 µM (active), the GI50 (HOP-92) was 0.309 µM (active) and the GI50 (M14) was 0.318 µM (active).
`Cc1cnc2cc(Cl)ccc2c1NCCN(CC(C)C)CC(C)C` was tested, and the GI50 (LXFL 529) was 59.8 µM (inactive), the GI50 (U-251) was > 100 µM (inactive) and the GI50 (SK-OV-3) was > 100 µM (inactive). For the same molecule, the GI50 (SK-MEL-28) was > 100 µM (inactive), the GI50 (HCT-116) was 78.7 µM (inactive) and the GI50 (KM12) was > 100 µM (inactive). The GI50 (NCI-H460) was > 100 µM (inactive), the GI50 (SF-295) was 32.7 µM (inactive) and the GI50 (IGROV-1) was > 100 µM (inactive). The GI50 (UO-31) was 9.23 µM (inactive), the GI50 (OVCAR-4) was > 100 µM (inactive) and the GI50 (OVCAR-5) was > 100 µM (inactive). For the same molecule, the GI50 (SF-539) was > 100 µM (inactive), the GI50 (MOLT-4) was > 100 µM (inactive) and the GI50 (ACHN) was > 100 µM (inactive). For the same molecule, the GI50 (NCI-H522) was 13.1 µM (inactive), the GI50 (M19-MEL) was > 100 µM (inactive) and the GI50 (UACC-257) was > 100 µM (inactive). The GI50 (COLO 205) was > 100 µM (inactive), the GI50 (SR) was > 100 µM (inactive) and the GI50 (K562) was 9.53 µM (inactive). For the same molecule, the GI50 (SNB-19) was > 10 µM (inactive), the GI50 (HOP-62) was 67.6 µM (inactive) and the GI50 (NCI-H23) was 95.3 µM (inactive). For the same molecule, the GI50 (OVCAR-3) was 13.3 µM (inactive), the GI50 (SNB-78) was 41.1 µM (inactive) and the GI50 (UACC-62) was > 100 µM (inactive). For the same molecule, the GI50 (DMS-114) was 8.18 µM (inactive), the GI50 (HL-60) was 9.75 µM (inactive) and the GI50 (SNB-75) was > 100 µM (inactive). The GI50 (SK-MEL-2) was > 100 µM (inactive), the GI50 (RPMI-8226) was 13.6 µM (inactive) and the GI50 (HT-29) was 8.3 µM (inactive). The GI50 (HCC 2998) was > 100 µM (inactive), the GI50 (KM-20L2) was 17.5 µM (inactive) and the GI50 (SF-268) was > 100 µM (inactive). The GI50 (HOP-92) was 11.1 µM (inactive) and the GI50 (M14) was > 100 µM (inactive).
`O=C(OC1CCC2OOC1O2)c1ccc([N+](=O)[O-])cc1` (configuration not stated) was tested, and the GI50 (U-251) was > 100 µM (inactive), the GI50 (SK-OV-3) was > 100 µM (inactive) and the GI50 (Malme-3M) was > 100 µM (inactive). The GI50 (TK-10) was > 100 µM (inactive), the GI50 (SK-MEL-28) was > 100 µM (inactive) and the GI50 (HCT-116) was > 100 µM (inactive). The GI50 (SK-MEL-5) was > 100 µM (inactive), the GI50 (LOX IMVI) was > 100 µM (inactive) and the GI50 (KM12) was > 100 µM (inactive). The GI50 (SW-620) was > 100 µM (inactive), the GI50 (NCI-H460) was > 100 µM (inactive) and the GI50 (SF-295) was > 100 µM (inactive). The GI50 (IGROV-1) was > 100 µM (inactive), the GI50 (UO-31) was > 100 µM (inactive) and the GI50 (OVCAR-4) was > 100 µM (inactive). For the same molecule, the GI50 (OVCAR-5) was > 100 µM (inactive), the GI50 (A498) was > 100 µM (inactive) and the GI50 (SF-539) was > 100 µM (inactive). For the same molecule, the GI50 (MOLT-4) was > 100 µM (inactive), the GI50 (CAKI-1) was > 100 µM (inactive) and the GI50 (ACHN) was > 100 µM (inactive). The GI50 (NCI-H522) was > 100 µM (inactive), the GI50 (M19-MEL) was > 100 µM (inactive) and the GI50 (UACC-257) was > 100 µM (inactive). For the same molecule, the GI50 (NCI-H226) was > 100 µM (inactive), the GI50 (COLO 205) was > 100 µM (inactive) and the GI50 (SR) was > 100 µM (inactive). For the same molecule, the GI50 (K562) was > 100 µM (inactive), the GI50 (SNB-19) was > 100 µM (inactive) and the GI50 (OVCAR-8) was > 100 µM (inactive). The GI50 (HOP-62) was > 100 µM (inactive), the GI50 (NCI-H23) was > 100 µM (inactive) and the GI50 (DMS-273) was > 100 µM (inactive). The GI50 (OVCAR-3) was > 100 µM (inactive), the GI50 (SN12C) was > 100 µM (inactive) and the GI50 (HCT-15) was over 100 µM. For the same molecule, the GI50 (SNB-78) was > 100 µM (inactive), the GI50 (CCRF-CEM) was > 100 µM (inactive) and the GI50 (EKVX) was > 100 µM (inactive). The GI50 (UACC-62) was > 100 µM (inactive), the GI50 (DMS-114) was > 100 µM (inactive) and the GI50 (HL-60) was > 100 µM (inactive). The GI50 (SNB-75) was > 100 µM (inactive), the GI50 (SK-MEL-2) was > 100 µM (inactive) and the GI50 (RPMI-8226) was > 100 µM (inactive). For the same molecule, the GI50 (HT-29) was > 100 µM (inactive), the GI50 (786-0) was > 100 µM (inactive) and the GI50 (HCC 2998) was > 100 µM (inactive). The GI50 (KM-20L2) was > 100 µM (inactive), the GI50 (RXF 393) was > 100 µM (inactive) and the GI50 (A549) was > 100 µM (inactive). For the same molecule, the GI50 (SF-268) was > 100 µM (inactive) and the GI50 (M14) was > 100 µM (inactive).
